Test results: patent EP1203585A1, “ANTI-ISCHEMIC AGENT” (Zakrytoe Aktsionernoe Obschestvo " Asgl-Issledovatelskie …, priority 1999, dated 2001)

Experiments:
[1] = system: rats with experimental myocardial infarction; test: experimental myocardial infarction after occlusion of the descending branch of the left coronary artery (LAD), morphometry of ischemia and injury zones; assay type: in vivo; settings: for Area of the injury zone: ischemia zone plus necrosis zone; for Area of the injury zone / Area of the necrosis zone / Ratio: necrosis zone /myocard / Ratio: necrosis/ ischemia / Area of the myocardial zone / Area of the ischemia zone / Ratio: ischemia zone/ myocard: third day, PhP 50 mg/kg intraperitoneally 30 minutes before LAD occlusion; for Area of the injury zone / Area of the necrosis zone / Ratio: necrosis zone /myocard / Ratio: necrosis/ ischemia / Area of the ischemia zone / Ratio: ischemia zone/ myocard: Obzidan 0.5 mg/kg; for Area of the injury zone / Area of the ischemia zone / Ratio: ischemia zone/ myocard: * p<0.05 vs physiological solution; for Area of the myocardial zone: Obzidan 0.5 mg/kg 30 minutes before
Protocol: The study on 4-phenyl-2-pyrrolidinone-1-acetic acid amide anti-ischemic activity has been carried out in model of experimental myocardial infarction caused by the experimental myocardial infarction after the descending branch of the left coronary artery (LAD) occlusion in rats. 4-phenyl-2-pyrrolidinone-1-acetic acid amide was administered intraperitoneally in dose 50 mg/kg 30 minutes before the LAD-occlusion. Anti-ischemic activity of the substance was assessed on the third day after its administration by estimation of the area of necrosis, the area of ischemia and the total myocardial necrosis zone (area of necrosis plus area of ischemia). Ischemia zone and myocardial injury zones were assessed by morphometry methods. Results obtained in the experimental animals' groups exposed to the substance were compared with results obtained in animals, exposed to Obzidan and physiological solutionin (PhS) in dose 0.5 mg/kg, administered 30 minutes before the LAD occlusion.

[2] = system: rats; test: hemodynamics parameters estimated by direct method; assay type: in vivo
Protocol: In the other study parameters of hemodynamics in rats exposed to PhP have been estimated (minute cardiac supply, cardiac index, cardiac output, heart rate). Hemodynamics parameters have been estimated by direct method on the fourth day after PhP administration in dose 50 mg/kg.

[3] = acute toxicity (LD50); parameters: species or system rats; settings: rat, in vivo
Protocol: Acute toxicity (LD50) has been studied in rats, the substance being administered intraperitoneally and perorally. […] LD50 of the substance administered perorally to rats (males and females) - 2464,8 mg/kg, of the pharmaceutical form - 3185,8 mg/kg.

[4] = system: rats; test: toxicity study, blood and biochemical parameters at 50 and 100 mg/kg; assay type: in vivo
[5] = system: rabbits; test: as above; assay type: in vivo
[6] = system: rats; test: chronic toxicity; assay type: in vivo; settings: 160 rats, perorally in doses 50, 250 and 500 mg/kg
[7] = system: dogs; test: chronic toxicity; assay type: in vivo; settings: 28 dogs, perorally in doses 50, 250 and 500 mg/kg
[8] = PhP 50 mg/kg intraperitoneally, compared with physiological solution
[9] = 4th day after PhP administration, dose 50 mg/kg

CC(C)NCC(O)COc1cccc2ccccc12 (stereo not drawn) [Obzidan, reference compound]
Area of the injury zone [1]: 203,68 MM^2 | Area of the necrosis zone [1]: 28,48 mm^2 | Ratio: necrosis zone /myocard [1]: 0,059± | Ratio: necrosis/ ischemia [1]: 0,163± | Area of the myocardial zone [1]: 481,13 mm^2 | Area of the ischemia zone [1]: 175,21 mm^2 | Ratio: ischemia zone/ myocard [1]: 0,365±

NC(=O)CN1CC(c2ccccc2)CC1=O (stereo not drawn) [PhP, 4-phenyl-2-pyrrolidinone-1-acetic acid amide]
Anti-ischemic effect ([1]; PhP 50 mg/kg compared with Obzidan 0.5 mg/kg): exceeded the one of Obzidan | area of ischemia zone (result in words) [1, 8]: statistically significantly reduced | area of the total injury zone (ischemia zone plus necrosis zone) (result in words) [1, 8]: statistically significantly reduced | area of myocardial necrosis (result in words) ([1]; PhP 50 mg/kg intraperitoneally, not statistically significant): nearly twice reduced | Area of the injury zone [1]: 182,53 MM^2 | Area of the necrosis zone [1]: 19,21 mm^2 | Ratio: necrosis zone /myocard [1]: 0,039± | Ratio: necrosis/ ischemia [1]: 0,113± | Area of the myocardial zone [1]: 492,55 mm^2 | Area of the ischemia zone [1]: 163,33 mm^2 | Ratio: ischemia zone/ myocard [1]: 0,332± | Cardiac index [2, 9]: 133.8 ±9.8 % in comparison with source data before PhP administration | Cardiac output [2, 9]: 161.8±12.7 % in comparison with source data before PhP administration | Heart rate [2, 9]: 115.4±3.1 % in comparison with source data before PhP administration | Minute cardiac supply [2, 9]: 110.8±3.2 % in comparison with source data before PhP administration | inotrop effect ([2]; PhP 50 mg/kg): not followed by any negative inotrop effect | LD50 ([3]; ip, rats, females, administered intraperitoneally): 522 mg/kg | LD50 ([3]; ip, rats, males, administered intraperitoneally): 538 mg/kg | LD50 ([3]; po, rats (males and females), administered perorally): 2460 mg/kg | parameters of the peripheral blood, composition of electrolytes and other biochemical parameters [4]: does not influence | parameters of the peripheral blood, composition of electrolytes and other biochemical parameters [5]: does not influence | changes of peripheral blood and heart, kidney and liver functions [6]: absence of significant changes | changes of peripheral blood and heart, kidney and liver functions [7]: absence of significant changes
